For four compounds, IC50 results are on record in article PMC9231138, “Dihydrotanshinone I Enhances Cell Adhesion and Inhibits Cell Migration in Osteosarcoma U−2 OS Cells through CD44 and Chemokine Signaling” (Molecules, 2022).

Like-named read-outs stand apart in the source and are kept apart here.

One may read the IC50 as the concentration at which inhibition is half-maximal.

The subject of one assay is U−2 OS cells. The assay can be described thus: MTT cell proliferation assay, U−2 OS cells. The format is cell-based. Conditions: Homo sapiens, U2OS, MTT. As for the experimental part:
(§1) The effects of tanshinones (DS−1 to DS−5) on the proliferation of U−2 OS cells, HeLa cells, and NRK−49F cells were measured by the classical MTT method with minor modifications as follows. Cells were seeded at 5000 per well in 96-well plates, with each group being repeated in 5 wells, and were incubated for 12 h. DS−1 to DS−5 were added at gradient concentrations, then incubated for 24 and 48 h, respectively. Then, 20 μL MTT solution (solved in PBS, 5 mg/mL) was added to every well, and the cells were further incubated at 37 °C for 4 h until a purple precipitate was visible. The plate was centrifuged at 1000 rpm for 1 min; the supernatant was suctioned, and 150 μL of DMSO was added per well; the plate was shaken on a shaker protected from light for 15 min. We placed the plate in an enzyme marker and measured the absorbance values at a 490 nm wavelength.
In general terms: Formazan colour is commonly taken as a measure of viable cells.

The next assay relates to HeLa cells. Put plainly: MTT cell proliferation assay, HeLa cells. In kind it is cell-based. To be noted: Homo sapiens, MTT, 24 h, read-out: IC50 HeLa cells (24 h). As for the experimental part:
as §1

The test system of another assay is NRK−49F cells. The assay can be described thus: MTT cell proliferation assay, NRK−49F cells. The format is cell-based, rat. To be noted: MTT, 24 h, normal rat kidney cells, read-out: IC50 NRK−49F cells (24 h). As for the experimental part: as §1
The mark [1] stands for this setting: 24 h, read-out: IC50 U−2 OS cells (24 h).
Setting [2] is: 48 h, read-out: IC50 U−2 OS cells (48 h).

Consider `Cc1coc2c1C(=O)C(=O)c1c-2ccc2c1CCCC2(C)C` [DS−5, Tanshinone IIA], for which the IC50 in the assay on U−2 OS cells (setting [1]) was 25.4 ± 1.43 µM; in the assay with U−2 OS cells (setting [2]) it was 5.91 ± 1.08 µM; in the assay with HeLa cells, 32.1 ± 1.94 µM; in the assay on NRK−49F cells, > 50 µM.
For `C[C@H]1COC2=C1C(=O)C(=O)c1c2ccc2c1CCCC2(C)C` [DS−2, Cryptotanshinone] the same measures were 47.8 ± 4.96 µM, 25.6 ± 0.81 µM, 52.1 ± 3.2 µM and 35.4 ± 3.25 µM.
The corresponding values for `CC1=CCCc2c1ccc1c2C(=O)C(=O)c2c(C)coc2-1` [DS−4, 1,2-Dihydrotanshinquinone] are 22.1 ± 1.31 µM, 5.89 ± 0.4 µM, 25 ± 2.03 µM and 31.8 ± 1.59 µM.
`Cc1coc2c1C(=O)C(=O)c1c-2ccc2c(C)cccc12` [DS−3, Tanshinone I]: the IC50 stood at 17.8 ± 1.03 µM with U−2 OS cells (setting [1]), 4.54 ± 1 µM in the assay on U−2 OS cells (setting [2]), 20.9 ± 2.81 µM with HeLa cells and 108 ± 28.9 µM in the assay with NRK−49F cells.
